As usually defined, the IC50 is the concentration that inhibits the measured activity by half. Lower therefore signals greater potency. Broadly, the EC50 is the concentration that produces a half-maximal response.

The subject of series [1] is MDAMB231 breast cancer cell line. The series is described as follows: MTT cytotoxicity, breast cancer cell line. To be noted: 95% confidence interval in brackets. In kind it is cell-based. On the procedure:
(§1) The 4-oxoquinoline-3-carboxamide derivatives (0.3125–20 μM) were tested for cytotoxic activity against three cancer cell lines: HCT-116 (colon), ACP03 (gastric), and MDAMB-231 (breast) (Table 1). Active derivatives were also tested against a normal fibroblast cell line (MRC-5). All cell lines were maintained in DMEM medium supplemented with 10% fetal bovine serum, 2 mM glutamine, 100 U/mL penicillin, and 100 µg/mL streptomycin and were incubated at 37 °C with 5% CO2. Each derivative was dissolved with DMSO to a concentration of 10 mM. The final concentration of DMSO in the culture medium was kept at a constant value below 0.1% (v/v). The derivatives (0.3125–20 µM) were incubated with the cells for 72 h. The negative control contained the same amount of DMSO ([…]). Cell viability was determined by the reduction of the yellow dye 3-(4,5-dimethyl-2-thiazol)-2,5-diphenyl-2H-tetrazolium bromide (MTT) to a blue formazan product as described by Mosmann.
(§2) In the MTT experiments, the results were analyzed according to their means and standard errors in the program GraphPad Prism. Each sample was analyzed in triplicate.

The subject of series [2] is ACP-03 (ACP03) gastric cancer cell line. The series can be described thus: MTT cytotoxicity, gastric cancer cell line. In kind it is cell-based. Particulars: for IC50: gastric cancer cell line, MTT, 72 h, 95% confidence interval in brackets. On the procedure:
as §1, §2

The test system of series [3] is HCT-116 colon cancer cell line. The series is described as follows: MTT cytotoxicity, colon cancer cell line. In kind it is cell-based. Particulars: 95% confidence interval in brackets. Here is the method:
as §1, §2

Series [4] relates to MRC5 normal human fetal lung fibroblast. The series can be described thus: MTT cytotoxicity, normal fibroblast cell line. It is filed as cell-based. To be noted: for IC50: normal human fetal lung fibroblast, MTT, 72 h, 95% confidence interval in brackets; for cytotoxicity in normal fibroblasts: at 20 µM, MRC-5. On the procedure: as §1, §2
Series [5] in a line: Hemolytic assay (cell membrane disruption). Particulars: 2% mouse erythrocyte suspension, 1 h, room temperature; read-out: Hemolysis (EC50). In kind it is cell-based, mouse. Here is the method: (§3) The assay was performed in 96-well plates using a 2% mouse erythrocyte suspension in 0.85% NaCl containing 10 mM CaCl2. Derivatives 10–18, diluted as described above, were tested at 250 µg/mL. After incubation at room temperature for 1 h and centrifugation, the supernatant was removed, and the liberated hemoglobin was measured spectrophotometrically at 540 nm. DMSO was used as a negative control, and Triton X-100 (1%) was used as a positive control.

The test system of another series is mouse erythrocytes. The series is described as follows: Hemolytic assay (cell membrane disruption). In kind it is cell-based. To be noted: result in words. Here is the method: as §3
For series [6], the target named is T1, Human topoisomerase IIα (TopoIIα) (Homo sapiens, UniProt P11388).
T1 construct: purchased TopoGEN, Inc. (Columbus, OH, USA)
The series is described as follows: DNA relaxation assay (Topoisomerase II Drug Screening Kit). In kind it is biochemical. To be noted: 100 µM compound, 10 U enzyme, 37 °C, 30 min, agarose gel. On the procedure: Human topoisomerase IIα (TopoIIα) was obtained from TopoGEN, Inc. (Columbus, OH, USA). Proteinase K from Tritirachium album was obtained from Sigma-Aldrich, Inc. (St. Louis, MO, USA) and was dissolved in DNase free water. A TAE gel electrophoresis buffer was used in this assay.
The inhibitory effects of the derivatives on human TopoIIα were measured using a Eukaryotic Topoisomerase II Drug Screening Kit (TopoGEN, Inc.). All derivatives were dissolved in DMSO immediately prior to testing.
The substances were tested at a fixed concentration of 0.1 mM. […] Supercoiled plasmid DNA (pRYG, 200 ng) was incubated with human TopoIIα (10 U) at 37 °C for 30 min in relaxation buffers in the absence or presence of derivatives (final volume is 20 μL). The order of reagent addition was buffer, test derivative, Topo IIα and finally DNA.
The assay samples were analyzed by electrophoresis on a 1% agarose gel without EtdBr (25 V, 18 h, room temperature) in TAE buffer, followed by staining in 0.5 μg/mL of EtdBr to allow for observation of the DNA bands under UV light.

T1 sequence (P11388 whole entry): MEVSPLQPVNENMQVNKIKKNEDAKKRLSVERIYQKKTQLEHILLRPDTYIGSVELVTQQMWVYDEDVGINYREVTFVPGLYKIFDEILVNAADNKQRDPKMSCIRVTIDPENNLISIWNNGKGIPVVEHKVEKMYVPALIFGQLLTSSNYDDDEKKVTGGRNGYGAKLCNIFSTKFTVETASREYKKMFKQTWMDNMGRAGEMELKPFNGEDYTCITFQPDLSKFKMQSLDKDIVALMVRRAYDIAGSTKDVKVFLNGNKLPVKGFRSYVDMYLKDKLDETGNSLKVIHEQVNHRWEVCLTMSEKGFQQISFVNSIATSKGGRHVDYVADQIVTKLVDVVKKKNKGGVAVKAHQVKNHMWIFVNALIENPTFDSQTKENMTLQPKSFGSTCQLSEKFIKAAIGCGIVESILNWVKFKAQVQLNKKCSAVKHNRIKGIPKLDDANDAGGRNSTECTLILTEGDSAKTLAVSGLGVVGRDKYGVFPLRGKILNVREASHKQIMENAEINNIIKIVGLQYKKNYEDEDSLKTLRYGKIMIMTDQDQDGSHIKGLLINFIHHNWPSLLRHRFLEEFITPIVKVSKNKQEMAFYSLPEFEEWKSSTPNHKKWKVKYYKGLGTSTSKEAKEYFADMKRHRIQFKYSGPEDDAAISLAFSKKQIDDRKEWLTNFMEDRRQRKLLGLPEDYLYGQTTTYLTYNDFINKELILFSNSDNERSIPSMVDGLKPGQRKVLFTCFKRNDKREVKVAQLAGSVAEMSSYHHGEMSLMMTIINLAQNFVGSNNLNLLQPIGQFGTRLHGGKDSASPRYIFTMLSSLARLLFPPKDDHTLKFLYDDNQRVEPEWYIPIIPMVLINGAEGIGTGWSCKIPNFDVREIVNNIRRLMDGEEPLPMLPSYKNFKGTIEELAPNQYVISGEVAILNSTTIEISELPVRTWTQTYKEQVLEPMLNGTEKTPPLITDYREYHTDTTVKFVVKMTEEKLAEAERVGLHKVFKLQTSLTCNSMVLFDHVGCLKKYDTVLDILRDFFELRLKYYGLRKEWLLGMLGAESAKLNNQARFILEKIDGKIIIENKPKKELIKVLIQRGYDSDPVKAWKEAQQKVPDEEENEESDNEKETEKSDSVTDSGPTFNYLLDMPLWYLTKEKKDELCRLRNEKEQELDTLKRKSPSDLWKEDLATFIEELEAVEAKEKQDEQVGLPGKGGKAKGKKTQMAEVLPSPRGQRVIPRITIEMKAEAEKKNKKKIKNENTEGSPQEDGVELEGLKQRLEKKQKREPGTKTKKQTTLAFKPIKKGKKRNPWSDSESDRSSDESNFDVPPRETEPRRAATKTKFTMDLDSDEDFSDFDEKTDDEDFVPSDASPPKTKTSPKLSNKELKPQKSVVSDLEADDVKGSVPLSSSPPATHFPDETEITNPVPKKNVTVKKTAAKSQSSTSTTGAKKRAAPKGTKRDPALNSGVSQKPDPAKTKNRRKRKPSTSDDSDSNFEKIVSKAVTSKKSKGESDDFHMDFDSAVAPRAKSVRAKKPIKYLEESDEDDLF

`COc1cccc2c1C(=O)c1c(O)c3c(c(O)c1C2=O)C[C@@](O)(C(=O)CO)C[C@@H]3O[C@H]1C[C@H](N)[C@H](O)[C@H](C)O1` [DOXORUBICIN, doxorubicin, reference compound]: the IC50 in series [1] (Homo sapiens, MDA-MB-231, 72 h) came to 0.43 µM; in series [2], 0.274 µM; in series [3] (Homo sapiens, HCT-116, 72 h), 0.1 µM; in series [4] (MRC5), 0.2 µM. Further, in series [2] (ACP-03 versus MRC-5), the “selectivity against cancer cells versus normal cells” value is “no selectivity”. The EC50 at 1 h in series [5] was more than 200 µg/mL.
As to `O=C(NCc1ccc(Cl)cc1)c1c[nH]c2ccccc2c1=O` [Derivative 10a, 4-Oxo-N'-(4-chlorobenzyl)-1,4-dihydroquinoline-3-carboxamide], the IC50 in series [1] (72 h) and in series [3] (72 h) was more than 10 µM in each case.
On to `O=C(NCc1ccc(Cl)cc1)c1c[nH]c2ccc(Cl)cc2c1=O` [Derivative 10b, 6-Chloro-4-oxo-N'-(4-chlorobenzyl)-1,4-dihydroquinoline-3-carboxamide], for which the IC50 in series [1] (72 h) and in series [3] (72 h) was more than 10 µM throughout.
On to `O=C(NCc1ccc(Cl)cc1)c1c[nH]c2cc(Cl)ccc2c1=O` [Derivative 10c, 7-Chloro-4-oxo-N'-(4-chlorobenzyl)-1,4-dihydroquinoline-3-carboxamide], for which the IC50 in series [1] (72 h) and in series [3] (72 h) was more than 10 µM in each case.
In the case of `O=C(NC1CCCCC1)c1c[nH]c2ccccc2c1=O` [Derivative 11a, 4-Oxo-N'-cyclohexyl-1,4-dihydroquinoline-3-carboxamide], the IC50 in series [1] (72 h) and in series [3] (72 h) was more than 10 µM in each case.
Turning to `O=C(NC1CCCCC1)c1c[nH]c2ccc(Cl)cc2c1=O` [Derivative 11b, 6-Chloro-4-oxo-N'-cyclohexyl-1,4-dihydroquinoline-3-carboxamide], the IC50 in series [1] (72 h) and in series [3] (72 h) was more than 10 µM each time.
For `O=C(NC1CCCCC1)c1c[nH]c2cc(Cl)ccc2c1=O` [Derivative 11c, 7-Chloro-4-oxo-N'-cyclohexyl-1,4-dihydroquinoline-3-carboxamide], the IC50 in series [1] (72 h) and in series [3] (72 h) was more than 10 µM throughout.
As to `O=C(Nc1ccc(Cl)cc1)c1c[nH]c2ccccc2c1=O` [Derivative 12a, 4-oxo-N'-(4-Chlorophenyl)-1,4-dihydroquinoline-3-carboxamide], the IC50 in series [1] (72 h) and in series [3] (72 h) was more than 10 µM in each case.
With `O=C(Nc1ccc(Cl)cc1)c1c[nH]c2ccc(Cl)cc2c1=O` [Derivative 12b, 6-Chloro-4-oxo-N'-(4-chlorophenyl)-1,4-dihydroquinoline-3-carboxamide], the IC50 in series [1] (72 h) and in series [3] (72 h) was more than 10 µM each time.
Take `O=C(Nc1ccc(F)cc1)c1c[nH]c2ccccc2c1=O` [Derivative 13a, 4-oxo-N'-(4-Fluorophenyl)-1,4-dihydroquinoline-3-carboxamide]: the IC50 in series [1] (72 h) and in series [3] (72 h) was more than 10 µM each time.
`O=C(Nc1ccc(F)cc1)c1c[nH]c2cc(Cl)ccc2c1=O` [Derivative 13b, 7-Chloro-4-oxo-N'-(4-fluorphenyl)-1,4-dihydroquinoline-3-carboxamide]: the IC50 in series [1] (72 h) and in series [3] (72 h) was more than 10 µM each time.
With `COc1ccc(NC(=O)c2c[nH]c3ccccc3c2=O)cc1` [Derivative 14a, 4-oxo-N'-(4-Methoxyphenyl)-1,4-dihydroquinoline-3-carboxamide], the IC50 in series [1] (72 h) and in series [3] (72 h) was more than 10 µM each time.
Consider `COc1ccc(NC(=O)c2c[nH]c3cc(Cl)ccc3c2=O)cc1` [Derivative 14b, 7-Chloro-4-oxo-N'-(4-methoxyphenyl)-1,4-dihydroquinoline-3-carboxamide], for which the IC50 in series [1] (72 h) and in series [3] (72 h) was more than 10 µM each time.
With `O=C(Nc1ccccc1)c1c[nH]c2ccccc2c1=O` [Derivative 15a, 4-oxo-N'-Phenyl-1,4-dihydroquinoline-3-carboxamide], the IC50 in series [1] (72 h) and in series [3] (72 h) was more than 10 µM in each case.
Take `O=C(Nc1ccccc1)c1c[nH]c2ccc(Cl)cc2c1=O` [Derivative 15b, 6-Chloro-4-oxo-N'-phenyl-1,4-dihydroquinoline-3-carboxamide]: the IC50 in series [1] (72 h) and in series [3] (72 h) was more than 10 µM in each case.
With `O=C(Nc1ccccc1)c1c[nH]c2cc(Cl)ccc2c1=O` [Derivative 15c, 7-Chloro-4-oxo-N'-phenyl-1,4-dihydroquinoline-3-carboxamide], the IC50 in series [1] (72 h) and in series [3] (72 h) was more than 10 µM in each case.
For `Cc1ccc(NC(=O)c2c[nH]c3ccccc3c2=O)cc1` [Derivative 16a, 4-Oxo-N'-(p-tolyl)-1,4-dihydroquinoline-3-carboxamide], the IC50 in series [1] (72 h) and in series [3] (72 h) was more than 10 µM throughout.
Turning to `Cc1ccc(NC(=O)c2c[nH]c3ccc(Cl)cc3c2=O)cc1` [Derivative 16b, 6-Chloro-4-oxo-N'-(p-tolyl)-1,4-dihydroquinoline-3-carboxamide], the IC50 in series [1] (72 h) was more than 10 µM; in series [2], 1.92 µM; in series [3] (72 h), more than 10 µM; in series [4] it was more than 20 µM. Moreover, in series [4], the “cytotoxicity in normal fibroblasts” value is “did not display cytotoxicity”. The “hemolytical activity against blood cells” value in the series on mouse erythrocytes was “no hemolytical activity”. For the same molecule, in series [6], the “inhibition of supercoiled DNA (pRYG) relaxation by topoisomerase II” value is recorded as “only the SC band is observed, which indicates topoisomerase inhibition”.
`Cc1ccc(NC(=O)c2c[nH]c3cc(Cl)ccc3c2=O)cc1` [Derivative 16c, 7-Chloro-4-oxo-N'-(p-tolyl)-1,4-dihydroquinoline-3-carboxamide]: the IC50 in series [1] (72 h) and in series [3] (72 h) was more than 10 µM throughout.
`O=C(Nc1cc(Cl)ccc1Cl)c1c[nH]c2ccccc2c1=O` [Derivative 17a, 4-Oxo-N'-(2,5-dichlorophenyl)-1,4-dihydroquinoline-3-carboxamide]: the 50% inhibitory concentration (IC50) in series [1] (72 h) and in series [3] (72 h) was more than 10 µM throughout.
`O=C(Nc1cc(Cl)ccc1Cl)c1c[nH]c2ccc(Cl)cc2c1=O` [Derivative 17b, 6-Chloro-4-oxo-N'-(2,5-dichlorophenyl)-1,4-dihydroquinoline-3-carboxamide]: the IC50 in series [1] (72 h) was more than 10 µM; in series [2], 5.18 µM; in series [3] (72 h), more than 10 µM; in series [4], more than 20 µM. The “cytotoxicity in normal fibroblasts” value in series [4] is on record as “did not display cytotoxicity”. In addition, in the series on mouse erythrocytes, the “hemolytical activity against blood cells” value was “no hemolytical activity”. Also, the “inhibition of supercoiled DNA (pRYG) relaxation by topoisomerase II” value in series [6] was “only the SC band is observed, which indicates topoisomerase inhibition”.
Take `O=C(Nc1cc(Cl)ccc1Cl)c1c[nH]c2cc(Cl)ccc2c1=O` [Derivative 17c, 7-Chloro-4-oxo-N'-(2,5-dichlorophenyl)-1,4-dihydroquinoline-3-carboxamide]: the IC50 in series [1] (72 h) and in series [3] (72 h) was more than 10 µM each time.
For the molecule `COc1ccc(OC)c(NC(=O)c2c[nH]c3ccccc3c2=O)c1` [Derivative 18a, 4-Oxo-N'-(2,5-dimethoxyphenyl)-1,4-dihydroquinoline-3-carboxamide], the IC50 in series [1] (72 h) and in series [3] (72 h) was more than 10 µM each time.
On to `COc1ccc(OC)c(NC(=O)c2c[nH]c3ccc(Cl)cc3c2=O)c1` [Derivative 18b, 6-Chloro-4-oxo-N'-(2,5-dimethoxyphenyl)-1,4-dihydroquinoline-3-carboxamide], for which the IC50 in series [1] (72 h) and in series [3] (72 h) was more than 10 µM each time.
As to `COc1ccc(OC)c(NC(=O)c2c[nH]c3cc(Cl)ccc3c2=O)c1` [Derivative 18c, 7-Chloro-4-oxo-N'-(2,5-dimethoxyphenyl)-1,4-dihydroquinoline-3-carboxamide], the IC50 in series [1] (72 h) and in series [3] (72 h) was more than 10 µM throughout.
